In brackets after ≈: the same amount, converted by molar mass. Activity calls are given as the source filed them. The rule behind the calls is not given here.
Key:
Candida parapsilosis [1] = experiment: Antifungal activity against Candida parapsilosis ATCC 22019 after 24 hrs; type: functional; conditions: ATCC 22019, 24 h
Trichophyton rubrum = experiment: Antifungal activity against Trichophyton rubrum ATCC 28188 after 6 days; type: functional; conditions: ATCC 28188, 144 h
Candida albicans [2] = experiment: Antifungal activity against Candida albicans ATCC 10231 after 24 hrs; type: functional; conditions: ATCC 10231, 24 h
Aspergillus flavus = experiment: Antifungal activity against Aspergillus flavus ATCC 204304 after 48 hrs; type: functional; conditions: ATCC 204304, 48 h
Candida albicans [3] = experiment: Antifungal activity against Candida albicans ATCC 90028 after 24 hrs; type: functional; conditions: ATCC 90028, 24 h
Aspergillus terreus = experiment: Antifungal activity against Aspergillus terreus CDC 317 after 48 hrs; type: functional; conditions: CDC 317, 48 h
Aspergillus niger = experiment: Antifungal activity against Aspergillus niger ATCC 16404 after 48 hrs; type: functional; conditions: ATCC 16404, 48 h
Candida tropicalis [4] = experiment: Antifungal activity against Candida tropicalis CECT 11901 after 24 hrs; conditions: CECT 11901, 24 h
Candida tropicalis [5] = experiment: Antifungal activity against Candida tropicalis ATCC 200956 after 24 hrs; type: functional; conditions: ATCC 200956, 24 h
Pichia kudriavzevii = experiment: Antifungal activity against Candida krusei ATCC 6258 after 24 hrs; type: functional; conditions: ATCC 6258, 24 h
[6] = system: Trichophyton mentagrophytes; experiment: Antifungal activity against Trichophyton mentagrophytes ATCC 24198 after 6 days; type: functional; conditions: ATCC 24198, 144 h
Clavispora lusitaniae = experiment: Antifungal activity against Candida lusitaniae ATCC 200951 after 24 hrs; type: functional; conditions: ATCC 200951, 24 h
Vero = experiment: Cytotoxicity against african green monkey Vero cells after 48 hrs by MTT assay; type: cell-based; conditions: Chlorocebus sabaeus
Aspergillus fumigatus = experiment: Antifungal activity against Aspergillus fumigatus ATCC 204305 after 48 hrs; type: functional; conditions: ATCC 204305, 48 h
Fusarium oxysporum = experiment: Antifungal activity against Fusarium oxysporum ATCC 48112 after 48 hrs; type: functional; conditions: ATCC 48112, 48 h
[7] = Selectivity index, ratio of IC50 for african green monkey Vero cells to IC50 for Aspergillus fumigatus ATCC 204305; type: toxicity, cell-based; conditions: read-out: Ratio IC50
[8] = Selectivity index, ratio of IC50 for african green monkey Vero cells to IC50 for Trichophyton rubrum ATCC 28188; type: toxicity, cell-based; conditions: read-out: Ratio IC50
[9] = Selectivity index, ratio of IC50 for african green monkey Vero cells to IC50 for Candida krusei ATCC 6258; type: toxicity, cell-based; conditions: read-out: Ratio IC50
[10] = Selectivity index, ratio of IC50 for african green monkey Vero cells to IC50 for Candida lusitaniae ATCC 200951; type: toxicity, cell-based; conditions: read-out: Ratio IC50
[11] = Selectivity index, ratio of IC50 for african green monkey Vero cells to IC50 for Trichophyton mentagrophytes ATCC 24198; type: toxicity, cell-based; conditions: read-out: Ratio IC50
Candida parapsilosis [12] = experiment: Antifungal activity against Candida parapsilosis ATCC 22019 at > MIC up to 24 hrs by time kill study; type: functional, organism-based
Candida parapsilosis [13] = experiment: Antifungal activity against Candida parapsilosis ATCC 22019 at 0.5 MIC up to 24 hrs by time kill study; type: functional, organism-based

MIC90 (Candida parapsilosis [1]) [µg/mL]	MIC90 (Trichophyton rubrum) [µg/mL]	MIC90 (Candida albicans [2]) [µg/mL]	MIC90 (Aspergillus flavus) [µg/mL]	MIC90 (Candida albicans [3]) [µg/mL]	MIC90 (Aspergillus terreus) [µg/mL]	MIC90 (Aspergillus niger) [µg/mL]	MIC90 (Candida tropicalis [4]) [µg/mL]	MIC90 (Candida tropicalis [5]) [µg/mL]	MIC90 (Pichia kudriavzevii) [µg/mL]	MIC90 [6] [µg/mL]	MIC90 (Clavispora lusitaniae) [µg/mL]	MIC90 (Aspergillus fumigatus) [µg/mL]	MIC90 (Fusarium oxysporum) [µg/mL]	SMILES	IC50 (Vero) [µg/mL]	other results
> 32	> 32	> 32	> 32	> 32	> 32	> 32	> 32	> 32	> 32	> 32	> 32	> 32	> 32	Cc1cc(C)c2c3c(oc2c1)C(=O)c1cc(CCCC(C)C)ccc1C3=O	35.4 (≈ 98.2 µM)	–
> 32	> 32	> 32	> 32	> 32	> 32	> 32	> 32	> 32	> 32	> 32	> 32	> 32	> 32	COc1ccc(NC2=C(Br)C(=O)c3cc(CCCC(C)C)ccc3C2=O)cc1	58.5 (≈ 132 µM)	–
4 (≈ 14.6 µM)	4 (≈ 14.6 µM)	> 32	> 32	> 32	> 32	> 32	> 32	11.3 (≈ 41.1 µM)	2.4 (≈ 8.74 µM)	6.4 (≈ 23.3 µM)	3.2 (≈ 11.6 µM)	11.3 (≈ 41.1 µM)	32 (≈ 116 µM)	CC(C)=CCCc1ccc2c(c1)C(=O)C(Cl)=CC2=O	26.1 (≈ 95 µM)	selectivity ratio [7]: 1.4; selectivity ratio [8]: 6.5; selectivity ratio [9]: 10.9
> 32	12.7 (≈ 31.9 µM)	> 32	> 32	> 32	> 32	> 32	> 32	32 (≈ 80.4 µM)	> 32	5 (≈ 12.6 µM)	16 (≈ 40.2 µM)	> 32	> 32	COc1ccc(NC2=C(Cl)C(=O)c3cc(CCCC(C)C)ccc3C2=O)cc1	35.6 (≈ 89.5 µM)	selectivity ratio [10]: 2.2; selectivity ratio [11]: 7.1
> 32	> 32	> 32	> 32	> 32	> 32	> 32	> 32	> 32	> 32	> 32	> 32	> 32	> 32	Cc1c2c(nc3ccccc13)C(=O)c1cc(CCCC(C)C)ccc1C2=O	115 (≈ 322 µM)	–
> 32	> 32	> 32	> 32	> 32	> 32	> 32	> 32	> 32	> 32	> 32	> 32	> 32	> 32	CC(C)=CCCc1ccc2c(c1)C(=O)C=CC2=O	109 (≈ 454 µM)	–
0.25 (≈ 0.354 µM)	–	–	0.1 (≈ 0.142 µM)	–	–	–	–	–	0.5 (≈ 0.709 µM)	–	–	0.2 (≈ 0.283 µM)	–	CCC(C)n1ncn(-c2ccc(N3CCN(c4ccc(OCC5COC(Cn6cncn6)(c6ccc(Cl)cc6Cl)O5)cc4)CC3)cc2)c1=O (stereo not given) [ITRACONAZOLE]	> 50	Activity (Candida parapsilosis [12]): Active; selectivity ratio [9]: > 100
> 32	4 (≈ 12.9 µM)	> 32	> 32	> 32	> 32	> 32	> 32	> 32	> 32	4 (≈ 12.9 µM)	20.2 (≈ 64.9 µM)	8 (≈ 25.7 µM)	> 32	CC(C)CCCc1ccc2c(c1)C(=O)C(Cl)=C(Cl)C2=O	≥ 200	selectivity ratio [7]: > 25; selectivity ratio [10]: > 9.9; selectivity ratio [8]: > 50; selectivity ratio [11]: > 50
8 (≈ 24.1 µM)	5 (≈ 15.1 µM)	4 (≈ 12.1 µM)	> 32	8 (≈ 24.1 µM)	> 32	> 32	6.4 (≈ 19.3 µM)	4 (≈ 12.1 µM)	2.8 (≈ 8.44 µM)	3.2 (≈ 9.64 µM)	2.2 (≈ 6.63 µM)	22.6 (≈ 68.1 µM)	32 (≈ 96.4 µM)	CC(=O)NC1=C(Cl)C(=O)c2cc3c(cc2C1=O)CCCC3(C)C	22.3 (≈ 67.2 µM)	selectivity ratio [7]: 0.9; selectivity ratio [10]: 10.1; selectivity ratio [11]: 7.1
> 32	> 32	> 32	> 32	> 32	> 32	> 32	> 32	> 32	> 32	> 32	> 32	> 32	> 32	COc1cc(NC2=C(Cl)C(=O)c3cc4c(cc3C2=O)C(C)(C)CCC4)cc(OC)c1OC	≤ 25	–
> 32	22.6 (≈ 59.5 µM)	> 32	> 32	> 32	> 32	> 32	> 32	> 32	> 32	> 32	> 32	> 32	> 32	CC(C)=CCCc1ccc2c(c1)C(=O)C(Cl)=C(NCc1ccccc1)C2=O	55.9 (≈ 147 µM)	–
–	0.08 (≈ 0.275 µM)	–	–	–	–	–	–	–	–	0.03 (≈ 0.103 µM)	–	–	–	CN(C/C=C/C#CC(C)(C)C)Cc1cccc2ccccc12 [TERBINAFINE]	30.9 (≈ 106 µM)	selectivity ratio [8]: 386
> 32	3.2 (≈ 11.3 µM)	> 32	> 32	> 32	> 32	> 32	> 32	> 32	> 32	5 (≈ 17.6 µM)	> 32	> 32	> 32	CCNC1=CC(=O)c2cc3c(cc2C1=O)C(C)(C)CCC3	35.6 (≈ 126 µM)	selectivity ratio [8]: 11.1
4.8 (≈ 20 µM)	4 (≈ 16.6 µM)	18 (≈ 74.9 µM)	> 32	22.6 (≈ 94 µM)	> 32	> 32	12.7 (≈ 52.9 µM)	5 (≈ 20.8 µM)	4 (≈ 16.6 µM)	1.3 (≈ 5.41 µM)	5 (≈ 20.8 µM)	> 32	> 32	CC1(C)CCCc2cc3c(cc21)C(=O)C=CC3=O	8.6 (≈ 35.8 µM)	selectivity ratio [11]: 6.6; selectivity ratio [9]: 2.2
4 (≈ 14.6 µM)	5 (≈ 18.2 µM)	20.2 (≈ 73.5 µM)	> 32	16 (≈ 58.2 µM)	> 32	> 32	12.7 (≈ 46.2 µM)	8 (≈ 29.1 µM)	2 (≈ 7.28 µM)	3.2 (≈ 11.6 µM)	5 (≈ 18.2 µM)	16 (≈ 58.2 µM)	16 (≈ 58.2 µM)	CC1(C)CCCc2cc3c(cc21)C(=O)C=C(Cl)C3=O	109 (≈ 397 µM)	selectivity ratio [7]: > 1.6; Activity (Candida parapsilosis [13]): inactive; selectivity ratio [11]: > 7.8; Activity (Candida parapsilosis [12]): Active; selectivity ratio [9]: > 12.5
> 32	> 32	> 32	> 32	> 32	> 32	> 32	> 32	> 32	> 32	> 32	> 32	> 32	> 32	COc1ccc(SC2=CC(=O)c3ccc(CCCC(C)C)cc3C2=O)cc1	–	–
> 32	32 (≈ 80 µM)	> 32	32 (≈ 80 µM)	> 32	> 32	> 32	> 32	> 32	> 32	> 32	> 32	> 32	> 32	CC(C)CCCc1ccc2c(c1)C(=O)C(Br)=C(Br)C2=O	≤ 25	–
> 32	> 32	> 32	> 32	> 32	> 32	> 32	> 32	> 32	> 32	> 32	> 32	> 32	> 32	CCOC1=C(OCC)C(=O)c2cc3c(cc2C1=O)CCCC3(C)C	≤ 25	–
> 32	> 32	> 32	> 32	> 32	> 32	> 32	> 32	> 32	> 32	> 32	> 32	> 32	> 32	Cc1ccc2[nH]c3c(c2c1)C(=O)c1ccc(CCCC(C)C)cc1C3=O	55.2 (≈ 160 µM)	–
